Here are results for two compounds from publication PMC9643456, “Matching amino acids membrane preference profile to improve activity of antimicrobial peptides” (Communications Biology, 2022).

≈ marks a conversion by molar mass, not a printed value.

Holding throughout (test): microbe, parasite or virus in culture
Experiment [1] deals with A. baumannii KCCM 40203. The following applies: Acinetobacter baumannii, KCCM40203, read-out: MIC at resistance induction condition, A. baumannii KCCM 40203. The method, then: (§1) To assess antimicrobial activity, the MIC50 and MIC90 were measured using broth microdilution following CLSI guidelines. […] Each experiment was performed in triplicate. Meropenem (Sigma, Darmstadt, Germany) and colistin were used as control antibiotics. Cation-adjusted Mueller–Hinton broth (CAMHB) (Becton, Dickinson and Company, Franklin Lakes, USA) with supplied calcium (50 mg/L) and magnesium (10 mg/L) was used for the CLSI-test condition. Bacteria in midlog phase and peptides were separately diluted in CAMHB. The bacteria and peptide solutions were then mixed in 96-well polyethylene plates (SPL, Gyeonggi-do, Korea) and incubated for 18 h at 37 °C. The final concentration for bacteria was 5 × 10^5 CFU/ml. […] The MIC was defined to be the lowest concentration of peptide without visible turbidity by comparing with control antibiotics with the unaided eye. […] Each experiment was performed in triplicate. MICs in albumin and acetic acid solutions were measured using the same protocol but with 0.2% bovine serum albumin (Bovogen, Keilor, Australia), 0.01% acetic acid (Merck, New Jersey, USA), and CAMHB with both calcium and magnesium. In addition, MICs used in the antibiotic resistance acquisition test, the outer–inner membrane permeation test, and the transmembrane potential test and for FE-SEM were individually determined. The final bacterial concentrations used were as follows: for resistance acquisition, optical density (OD) 0.01; for outer–inner membrane permeability assays (LB), OD 0.1; for the transmembrane potential test, 1 × 10^8 CFU/ml (OD 0.171); […]. Inhibitory activity unidentifiable by direct observation was determined by counting the CFUs. Each experiment was performed at least twice.
A. baumannii (KCCM 40203) and S. aureus (KCTC 1621) were selected as drug-sensitive bacteria. Mutation-susceptible tetracycline (an antibiotic that targets ribosomes) (Sigma, Darmstadt, Germany) and ofloxacin (an antibiotic that targets DNA gyrase) (Sigma, Darmstadt, Germany), mutation-resistant colistin (an antibiotic that targets lipopolysaccharide) (Sigma, Darmstadt, Germany) and vancomycin (an antibiotic that targets peptidoglycan pentapeptide) (Sigma, Darmstadt, Germany) were used as control antibiotics. The MIC for each antibiotic against bacteria (at OD 0.01) was measured. […] The MIC for each passage was confirmed by additional broth microdilutions under CLSI guidelines. Resistance acquisition was induced for 30 days (30 passages), and each MIC value was confirmed by an independent MIC test against bacteria at each passage.

Experiment [2] relates to S. aureus KCTC 1621. Format: cell-based. To be noted: Staphylococcus aureus, KCTC1621, read-out: MIC at resistance induction condition, S. aureus KCTC 1621. How it is done: as §1
A. baumannii (KCCM 40203) and S. aureus (KCTC 1621) were selected as drug-sensitive bacteria. […] The MIC for each antibiotic against bacteria (at OD 0.01) was measured. […]

In experiment [3] the test system is MDR A. baumannii. To be noted: Acinetobacter baumannii, ATCCBAA1605, 18 h, read-out: Minimum inhibitory concentrations, MDR A. baumannii. Put shortly: (§2)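 Broth microdilution per CLSI in cation-adjusted Mueller–Hinton broth with calcium (50 mg/L) and magnesium (10 mg/L); midlog bacteria at final 5 × 10^5 CFU/ml, 18 h at 37 °C. MIC is the lowest peptide concentration without visible turbidity; triplicate, with meropenem and colistin as control antibiotics.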

In experiment [4] the test system is MDR E. faecalis. To be noted: Enterococcus faecalis, ATCC51575, 18 h, read-out: Minimum inhibitory concentrations, MDR E. faecalis. Put shortly: as §2
Experiment [5] deals with MDR P. aeruginosa. To be noted: Pseudomonas aeruginosa, CCARM2180, 18 h, read-out: Minimum inhibitory concentrations, MDR P. aeruginosa. The method, boiled down: as §2
Experiment [6] deals with MDR S. aureus. The following applies: Staphylococcus aureus, KCCM40510, 18 h, read-out: Minimum inhibitory concentrations, MDR S. aureus. The method, boiled down: as §2
The subject of experiment [7] is K. pneumonia strains. The following applies: Klebsiella pneumoniae, read-out: MIC, K. pneumonia NCCP 16125. How it is done:
Twenty-six A. baumannii strains were clinically isolated and gifted to us by the Kyungpook National University School of Medicine. One A. baumannii strain (ATCC 17978) was purchased and gifted to us by Kyungpook National University School of Medicine. One A. baumannii strain and 10 K. pneumoniae strains (NCCP) were purchased from the National Culture Collection for Pathogens.
as §1

Experiment [8] deals with E. aerogenes NCCP 16285. To be noted: Klebsiella aerogenes, NCCP16285, read-out: MIC, E. aerogenes NCCP 16285. How it is done:
as §1

Regarding `CN(C)[C@@H]1C(O)=C(C(N)=O)C(=O)[C@@]2(O)C(O)=C3C(=O)c4c(O)cccc4[C@@](C)(O)[C@H]3C[C@@H]12` [Tetracycline], the MIC in experiment [1] and in experiment [2] was 1.25 µM (≈ 0.556 µg/mL) in each case.
As to `CN[C@H](CC(C)C)C(=O)N[C@H]1C(=O)N[C@@H](CC(N)=O)C(=O)N[C@H]2C(=O)N[C@H]3C(=O)N[C@H](C(=O)N[C@H](C(=O)O)c4cc(O)cc(O)c4-c4cc3ccc4O)[C@H](O)c3ccc(c(Cl)c3)Oc3cc2cc(c3O[C@@H]2O[C@H](CO)[C@@H](O)[C@H](O)[C@H]2O[C@H]2C[C@](C)(N)[C@H](O)[C@H](C)O2)Oc2ccc(cc2Cl)[C@H]1O` [Vancomycin, reference compound], the MIC was over 5 µM in experiment [3]; over 20 µM in experiment [4]; over 5 µM in experiment [5]; 1.25 µM (≈ 1.81 µg/mL) in experiment [6]; over 5 µM in experiment [7]; over 5 µM in experiment [8]. The MIC in experiment [1] and in experiment [2] was 1.25 µM (≈ 1.81 µg/mL) each time.
